For data set [1], the system named is SMMC-7721. The experiment in a line: Induction of apoptosis in human SMMC7721 cells incubated for 48 hrs by Annexin-V-FITC/propidium iodide staining based flow cytometry. Format: functional, cell-based.
Data set [2] relates to HeLa. The experiment in a line: Antiproliferative activity against human HeLa cells assessed as reduction in cell growth at 2 uM incubated for 72 hrs by CCK-8 assay relative to control. Format: functional. (In general: Formazan colour is commonly taken as a measure of viable cells.)
Data set [3] relates to A-375. Nature of the data set: Antiproliferative activity against human A375 cells assessed as reduction in cell growth incubated for 72 hrs by CCK-8 assay. The format is functional, cell-based. To be noted: A-375, 72 h.
Data set [4] concerns SMMC-7721. Nature of the data set: Cell cycle arrest in human SMMC7721 cells assessed as accumulation at S phase at 1 uM incubated for 48 hrs by propidium iodide staining based flow cytometry (Rvb=6.83%). Format: functional. Background: In flow cytometry, cells or beads pass a laser one at a time.
The test system of data set [5] is HCT-116. Nature of the data set: Antiproliferative activity against human HCT116 cells assessed as reduction in cell growth at 8 uM incubated for 72 hrs by CCK-8 assay relative to control. Format: functional. To be noted: HCT-116, 72 h.
For data set [6], the system named is HCT-116. Nature of the data set: Antiproliferative activity against human HCT116 cells assessed as reduction in cell growth at 2 uM incubated for 72 hrs by CCK-8 assay relative to control. Format: functional. To be noted: HCT-116, 72 h.
The test system of data set [7] is A-375. The experiment in a line: Antiproliferative activity against human A375 cells assessed as reduction in cell growth at 8 uM incubated for 72 hrs by CCK-8 assay relative to control. The format is functional. The conditions noted are these: A-375, 72 h.
In data set [8] the test system is HeLa. Nature of the data set: Antiproliferative activity against human HeLa cells assessed as reduction in cell growth at 8 uM incubated for 72 hrs by CCK-8 assay relative to control. The format is functional.
Data set [9] addresses T1, Protein deacetylase HDAC6 (Homo sapiens, UniProt Q9UBN7).
T1 sequence (Q9UBN7 whole entry): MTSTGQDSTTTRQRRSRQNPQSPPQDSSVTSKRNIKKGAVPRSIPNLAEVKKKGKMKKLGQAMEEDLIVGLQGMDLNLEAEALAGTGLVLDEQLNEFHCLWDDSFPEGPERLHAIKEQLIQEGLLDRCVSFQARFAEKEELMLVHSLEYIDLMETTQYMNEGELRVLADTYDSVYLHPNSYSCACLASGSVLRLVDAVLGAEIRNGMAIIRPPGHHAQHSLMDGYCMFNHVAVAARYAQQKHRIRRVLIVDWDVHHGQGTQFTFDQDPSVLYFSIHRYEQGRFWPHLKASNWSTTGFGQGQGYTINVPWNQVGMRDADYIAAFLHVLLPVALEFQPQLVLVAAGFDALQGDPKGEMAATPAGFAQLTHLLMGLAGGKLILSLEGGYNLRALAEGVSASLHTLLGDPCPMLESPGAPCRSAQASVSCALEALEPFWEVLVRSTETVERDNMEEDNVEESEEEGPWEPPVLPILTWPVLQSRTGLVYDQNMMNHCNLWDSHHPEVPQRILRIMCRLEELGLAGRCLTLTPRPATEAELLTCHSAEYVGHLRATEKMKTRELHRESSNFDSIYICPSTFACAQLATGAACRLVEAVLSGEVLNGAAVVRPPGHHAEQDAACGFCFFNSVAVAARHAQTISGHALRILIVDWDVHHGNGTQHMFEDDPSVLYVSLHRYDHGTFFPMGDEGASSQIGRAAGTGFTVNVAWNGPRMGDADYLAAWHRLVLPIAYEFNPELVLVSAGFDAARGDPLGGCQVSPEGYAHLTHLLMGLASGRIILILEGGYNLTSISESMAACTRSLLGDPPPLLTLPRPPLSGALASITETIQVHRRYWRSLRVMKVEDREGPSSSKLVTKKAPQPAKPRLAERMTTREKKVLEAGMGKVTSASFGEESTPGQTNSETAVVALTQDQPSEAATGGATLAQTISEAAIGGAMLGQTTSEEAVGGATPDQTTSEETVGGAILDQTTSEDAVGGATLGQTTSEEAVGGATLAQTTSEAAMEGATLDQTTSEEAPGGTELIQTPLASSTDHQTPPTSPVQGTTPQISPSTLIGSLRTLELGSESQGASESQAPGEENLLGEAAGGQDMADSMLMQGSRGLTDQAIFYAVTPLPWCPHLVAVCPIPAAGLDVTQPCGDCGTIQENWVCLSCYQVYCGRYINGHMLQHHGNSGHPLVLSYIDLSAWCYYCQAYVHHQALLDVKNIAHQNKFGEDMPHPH
The experiment in a line: Inhibition of human recombinant His-tagged HDAC6 expressed in baculovirus infected insect cells using FLUOR DE LYS SIRT1 as substrate preincubated for 10 mins followed by substrate addition and measured after 30 mins by fluorescence method.

For data set [10], the system named is HeLa. The experiment in a line: Antiproliferative activity against human HeLa cells assessed as reduction in cell growth incubated for 72 hrs by CCK-8 assay. Format: functional, cell-based.
In data set [11] the test system is SMMC-7721. The experiment in a line: Antiproliferative activity against human SMMC7721 cells assessed as reduction in cell growth at 8 uM incubated for 72 hrs by CCK-8 assay relative to control. Format: functional. The conditions noted are these: SMMC-7721, 72 h.
Data set [12] has as its system SMMC-7721. Nature of the data set: Cell cycle arrest in human SMMC7721 cells assessed as accumulation at S phase at 0.25 uM incubated for 48 hrs by propidium iodide staining based flow cytometry (Rvb=6.83%). The format is functional.
Data set [13] has as its system SMMC-7721. The experiment in a line: Cell cycle arrest in human SMMC7721 cells assessed as accumulation at S phase incubated for 48 hrs by propidium iodide staining-based flow cytometry. Format: functional.
In data set [14] the test system is SMMC-7721. The experiment in a line: Induction of apoptosis in human SMMC7721 cells assessed as necrotic cells at 1 uM incubated for 48 hrs by Annexin-V-FITC/propidium iodide staining based flow cytometry (Rvb=1.88%). The format is functional.
The subject of data set [15] is SMMC-7721. The experiment in a line: Cell cycle arrest in human SMMC7721 cells assessed as accumulation at G2/M phase incubated for 48 hrs by propidium iodide staining-based flow cytometry. The format is functional.
Data set [16] relates to A549. Nature of the data set: Antitumor activity against human A549 cells xenografted in BALB/C mouse assessed as tumor growth inhibition at 25 mg/kg, ip bid for 21 days measured at 3 days interval during compound dosing relative to control. To be noted: read-out: TGI. Format: functional. Background: A xenograft is tissue or cells of one species grown in another, often human tumour cells in immunodeficient mice.

Data set [17] deals with A549. The experiment in a line: Antitumor activity against human A549 cells xenografted in BALB/C mouse assessed as reduction in tumor size at 25 mg/kg, ip bid for 21 days measured at 3 days interval during compound dosing by visual analysis. Format: functional, organism-based.
Data set [18] in a line: Toxicity in BALB/C mouse xenografted with human A549 cells assessed as reduction in body weight at 25 mg/kg, ip bid for 21 days measured at 3 days interval during compound dosing. To be noted: in vivo. Format: organism-based.

pIC50: −log10 of the molar value. The source made the active and inactive calls. No cut-off for these calls is given here.

The term inhibition denotes how much of the control response was suppressed. The pIC50 is the IC50 on a negative log10 scale, so that one unit is a factor of ten. As to `CCn1c(SCc2ccc(/C=C/C(=O)Nc3ccccc3N)cc2)nc2cc(OC)ccc2c1=O`, the Activity entry was “Dose-dependent effect” in data set [1]; 16.13% in data set [4]; 20.75% in data set [12]; “Dose-dependent effect” in [13]; 8.91% in [14]. Also, the inhibition at 2 µM was determined as 24% in [2] and 67.3% in [6]. Further, the pIC50 in data set [3] is 6.03; in [9], under 4.40; in data set [10], 5.47. Also, the inhibition at 8 µM in data set [5] amounted to 80.5%; in data set [7], 89.5%; in data set [8], 70.8%; in data set [11], 79.7%.
As to `Cn1c(SCc2ccc(C(=O)Nc3ccccc3N)cc2)nc2cc(Br)ccc2c1=O`, the Activity result in [1] is “Dose-dependent effect”; in [4] it was 18.28%; in [12], 15.53%; in data set [13], “Dose-dependent effect”; in data set [14], 13.6%. Also, the inhibition at 2 µM came to 32.3% in [2] and 72.4% in [6]. Also, the pIC50 in [3] is 5.55; in data set [9], under 4.40; in [10], 5.40. Further, the inhibition at 8 µM in data set [5] worked out at 88.4%; in data set [7], 72.9%; in data set [8], 72.8%; in data set [11], 70.6%.
With `COc1ccc2c(=O)n(C)c(SCc3ccc(C(=O)Nc4ccccc4N)cc3)nc2c1`, the Activity result is “Dose-dependent effect” in [1]; “Dose-dependent effect” in data set [15]; 19.34% in data set [4]; 22.23% in data set [12]; “Non-Toxic” in [18]; 10.8% in [14]. In addition, the inhibition at 2 µM was determined as 57.5% in data set [2] and 73.1% in data set [6]. Also, the values for the pIC50 in data set [3], in data set [9] and in data set [10] were 6.01, under 4.40 and 5.83, respectively. The inhibition at 8 µM in data set [5] was 91.8%; in data set [7], 89.4%; in data set [8], 87%; in data set [11], 79.3%. For the same molecule, the inhibition in vivo at 25 mg/kg in [16] came to 62.5%. In data set [17], the outcome was Active.
`COc1ccc2c(=O)n(-c3ccccc3Cl)c(SCc3ccc(C(=O)Nc4ccccc4N)cc3)nc2c1`: the Activity result was “Dose-dependent effect” in data set [1]; 28.44% in [4]; 19.96% in data set [12]; “Dose-dependent effect” in [13]; 7.63% in [14]. Moreover, the inhibition at 2 µM in data set [2] turned out to be 54.4%; in [6] it was 43.7%. The pIC50 was 5.45 in data set [3], under 4.40 in data set [9] and 5.88 in [10]. In addition, the inhibition at 8 µM in [5] was found to be 83.3%; in data set [7], 78.7%; in [8], 82.7%; in [11], 84.1%.

For the origin of these results see ChEMBL document CHEMBL4393680, “Design, synthesis and biological evaluation of novel thioquinazolinone-based 2-aminobenzamide derivatives as potent histone deacetylase (HDAC) inhibitors” (Eur J Med Chem, 2019).
